3 compounds from ChEMBL document CHEMBL1134285, “Novel agouti-related-protein-based melanocortin-1 receptor antagonist” (J Med Chem, 2001) can be followed below.

Positions of bridges follow the written chain, without caps; N, C: chain ends. Residues, ends and D or L forms follow the SMILES beside them.

The target in this test is Melanocortin receptor 4 (Mus musculus, UniProt P56450). Briefly: Antagonist activity against mouse melanocortin-4 receptor (MC4R) using Schild analysis. In kind it is functional. The settings on record: for Kb: read-out: pA2 (converted).
Melanocortin receptor 4, sequence (P56450 whole entry): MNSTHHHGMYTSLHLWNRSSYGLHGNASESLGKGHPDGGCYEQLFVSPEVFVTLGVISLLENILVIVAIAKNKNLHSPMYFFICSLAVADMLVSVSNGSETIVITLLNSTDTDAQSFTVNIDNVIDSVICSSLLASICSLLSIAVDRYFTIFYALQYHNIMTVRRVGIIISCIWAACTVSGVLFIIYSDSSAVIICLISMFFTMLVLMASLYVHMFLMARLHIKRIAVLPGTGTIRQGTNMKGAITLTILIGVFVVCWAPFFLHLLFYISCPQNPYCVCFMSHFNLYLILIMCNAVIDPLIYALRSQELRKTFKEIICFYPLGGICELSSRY

Usually pA2 stands for the negative logarithm of the molar antagonist concentration that doubles the agonist concentration needed for the same response. Low readings indicate lower antagonist potency, high ones higher antagonist potency.

On to `C[C@@H]1NC(=O)[C@H](CC(N)=O)NC(=O)[C@H](Cc2ccccc2)NC(=O)[C@H](Cc2ccccc2)NC(=O)[C@H](CCCN=C(N)N)NC(=O)CC[C@H](NC(=O)[C@@H](N)Cc2ccc(O)cc2)C(=O)NC[C@@H](C(=O)N[C@@H](Cc2ccc(O)cc2)C(N)=O)NC(=O)[C@H](Cc2ccccc2)NC1=O`, for which the pA2 came out at 6.98.

Consider `C[C@@H]1NC(=O)[C@H](CC(N)=O)NC(=O)[C@H](Cc2ccccc2)NC(=O)[C@H](Cc2ccccc2)NC(=O)[C@H](CCCNC(=N)N)NC(=O)[C@@H](NC(=O)[C@@H](N)Cc2ccc(O)cc2)CSSC[C@@H](C(=O)N[C@@H](Cc2ccc(O)cc2)C(N)=O)NC(=O)[C@H](Cc2ccccc2)NC1=O` (H-YCRFFNAFCY-NH2; disulfide 2-9), for which the Kb is 155 nM.

On to `C[C@@H]1NC(=O)[C@H](CC(N)=O)NC(=O)[C@H](Cc2ccccc2)NC(=O)[C@H](Cc2ccccc2)NC(=O)[C@H](CCCNC(=N)N)NC(=O)[C@@H](NC(=O)[C@@H](N)Cc2ccc(O)cc2)CC(=O)NC[C@@H](C(=O)N[C@@H](Cc2ccc(O)cc2)C(N)=O)NC(=O)[C@H](Cc2ccccc2)NC1=O`, for which the Kb was 479 nM.
